Laboratory results as given in patent US20240409647A1, “BISPECIFIC BINDING PROTEINS AGAINST ALARMINS AND USES THEREOF” (SINOMAB BIOSCIENCE LIMITED, priority 2022, published 2024).

Experiments:
Human PBMCs = experiment: IL-5 and IL-13 release from human PBMC incubated with IL-2 and three alarmins; type: cell-based; details: SM17 5 μg/ml; IL-2 and three alarmins (10 ng/ml), three days; vs IgG4 isotype control
Experimental: Human PBMCs (4×10^5 per group, Ixcells) were incubated with IL-2 (10 unit/mL, PeproTech) and various alarmin/alarmin combinations to mimic the pro-inflammatory cytokines release during allergic diseases. For IL-5 and IL-13 releases, PBMCs were incubated with IL-2 and three alarmins (all 10 ng/ml) for three days. For CCL17 release, PBMC was incubated with TSLP (10 ng/ml) for 1 day. For CCL8 and IFNγ releases, PBMCs were incubated with IL-12 (10 ng/ml, Sino Biological) and IL-33 (10 ng/ml) for 1 day. Cells were pretreated with SM17 (5 μg/ml) or IgG4 isotype control (5 μg/ml) for an hour before the addition of cytokines.
Supernatants were collected and the cytokine concentration were measured by ELISA kits (R&D systems). These established assays were used to test the potency of and SM17 and bsBps. […] Results were expressed in absolute amount in pg/ml.
SM17, three different SM17-anti-IL33 bsBps and three different SM17-anti-TSLP bsBps (all at 5 μg/ml) were added to human PBMC cultures under conditions that shall induce the release of IFNγ, CCL8, CCL17 and IL-5 as described in Example 11 above. The levels of different cytokines and chemotactic factors in supernatant obtained in induced PBMC were evaluated using standard ELISA methods.

Normal human DCs = experiment: Dendritic cell potency assay, TSLP-induced CCL17 production; type: cell-based; design: key: −: no inhibition; +: weak; ++: moderate; +++: strong inhibition; details: 5 μg/mL; TSLP 10 ng/mL, 5 days
From the text: TSLP from inflamed epithelium promotes maturation of dendritic cells (DCs) to prime Th2 responses via CCL17, which induces chemotaxis of CD4+ T cells to mediate inflammation (Kitajima and Ziegler. 2013. “Cutting Edge: Identification Of The Thymic Stromal Lymphopoietin-Responsive Dendritic Cell Subset Critical For Initiation Of Type 2 Contact Hypersensitivity”. J Immunol 191: 4903-4907; Bleck et al. 2015. “Co-Expression Of Type 2 Immune Targets In Sputum-Derived Epithelial And Dendritic Cells From Asthmatic Subjects”. J Allergy Clin Immunol 136: 619-627.e5). Normal human DCs were obtained from Lonza (Bend, OR). The DCs were cultured in LGM-3 medium (Lonza). TSLP (10 ng/mL) is added into the DC cultures for 5 days in the presence of 5 μg/mL of SM17, IgG4 isotype control (Sino Biological), SM17-TSLPR bsBp (SM17 fused with TSLP receptor extracellular domain) or SM17-anti-TSLP bsBp 2 #. The supernatants are harvested and the levels of CCL17 measured by ELISA following the manufacturer's specification (R&D systems).

[1] = tested on: IL-2/IL-25-treated human PBMC; experiment: IL-5 release from IL-2/IL-25-treated human PBMC; type: cell-based; details: SM17 0.16 ng/mL to 5 mg/mL; 10 unit/mL IL-2, 10 μg/mL IL-25; 72 hours; dose dependent
Experimental: PBMC (Ixcells, San Diego, CA) co-cultured with IL-2 and IL-25 (PeproTech, Cranbury, NJ) can lead to the release of IL-5, a cytokine known to exacerbate the conditions of asthma. Accordingly, the inhibitory effect of SM17 on IL-5 release from IL-2/IL-25-treated human PBMC was evaluated. Briefly, cryopreserved human PBMC were thawed and cultured in RPMI-1640 medium supplemented with 10% Fetal Bovine Serum (Thermo Fisher Scientific). Serially diluted SM17 at concentrations ranging from 0.16 ng/mL to 5 mg/mL were added to 4×10^5 of human PBMC in the presence of 10 unit/mL of IL-2 and 10 μg/mL of IL-25. Non-specific human IgG4 (SinoBiological) was used as the control antibody. Treated cells were incubated for 72 hours at 37° C., and the level of IL-5 release in the culture supernatant was measured by standard ELISA assay (R&D systems). […] Results are presented as means±SEM. One Way ANOVA, Dunnett's Multiple Comparison Test, *: P<0.05; **: P<0.01.

IL-17RB = target: T1, IL-17RB (Homo sapiens, UniProt Q9NRM6); experiment: ELISA, antigen binding specificity of bsBp (IL-17RB); design: key: −: no binding; +: weak; ++: moderate; +++: strong binding; N/A refers to no binding affinity; details: 33.5 nM; antigen coated at 2 μg/mL
T1 construct: purchased R&D systems
T1 sequence (Q9NRM6 18-502): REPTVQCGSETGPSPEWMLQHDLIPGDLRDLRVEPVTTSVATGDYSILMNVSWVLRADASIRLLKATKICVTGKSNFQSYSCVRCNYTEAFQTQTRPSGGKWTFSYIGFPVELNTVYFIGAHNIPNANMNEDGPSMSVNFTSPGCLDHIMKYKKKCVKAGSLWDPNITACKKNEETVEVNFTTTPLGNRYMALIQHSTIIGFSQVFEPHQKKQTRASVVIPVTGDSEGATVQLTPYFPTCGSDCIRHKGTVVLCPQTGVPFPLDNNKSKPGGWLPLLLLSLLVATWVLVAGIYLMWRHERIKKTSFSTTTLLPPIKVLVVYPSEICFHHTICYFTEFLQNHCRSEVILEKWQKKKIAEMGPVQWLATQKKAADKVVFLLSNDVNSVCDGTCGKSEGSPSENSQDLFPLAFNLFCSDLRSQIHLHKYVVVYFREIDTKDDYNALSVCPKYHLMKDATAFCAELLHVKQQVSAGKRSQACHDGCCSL
Experimental: Binding specificities of bsBp were evaluated by standard ELISA assays. Briefly, ELISA strips were coated with the respective target antigens, including IL17RB, IL-33, or TSLP (R&D systems) at a final concentration of 2 μg/mL. Bispecific antibodies were added at 33.5 nM to ELISA strips coated with the desired antigen. After incubation under room temperature for 2 hours, ELISA strips were washed five times with PBS. […] No result is provided for SM17-human TSLPR as the yield was too low to be detected.

[2] = tested on: ILC2 population in human PBMC; experiment: ILC2 cell population in human PBMC culture (flow cytometry); type: cell-based; design: key: −: no inhibition; +: weak; ++: moderate; +++: strong inhibition; details: IL-2 (10 unit/mL) and three alarmins (10 ng/ml), 5 days
From the text: While alarmins are known to work in concert to enhance ILC2 and Th2 cell functions such as increase in cell population, steroids such as Dexamethasone (Dex) can negate these effects, resulting in the mitigation of type 2 immune responses [Jia, Yi et al. American Journal Of Respiratory Cell And Molecular Biology, vol. 55, 5 (2016): 675-683]. ILC2 and Th2 cell population can be determined by flow cytometry (BD FACSVerse) following standard procedures known to those skilled in the art.

“SM17: humanized anti-IL17RB monoclonal antibody, human IgG4 isotype; HC SEQ ID NO: 32, LC SEQ ID NO: 33” was tested. Which “secretion of IL-5 (in words)” value (Human PBMCs) did it give?
The value was “effectively suppress”.

And the “secretion of IL-13 (in words)” value (Human PBMCs)?
Its value is “effectively suppress”.

What about the “Potency, inhibition of CCL17 release on dendritic cells” value (Normal human DCs) of the same substance?
Its value is “−”.

What about the “release of IL-5 from human PBMC induced with IL-2 and IL-25 (in words)” value [1] of the same substance?
The value was “suppressed the release of IL-5”.

What about the “Intensity of specific antigen binding, IL-17RB coated on ELISA strips” value (IL-17RB) of the same substance?
Its value is “+++”.

And the “Cell proliferation inhibition, ILC2” value [2]?
The value was “++”.
